According to patent US20100160445A1, “Synergistic Mixtures of OPP and DGH” (priority 2002, published 2010):
Counter-ions that a name gives are not always drawn.

Test system: mildew
Assay: Mildew resistance testing of caulking adhesives, ASTM D3273
Format: cell-based
Experimental: Testing was also completed on Franklin International Caulking Adhesives. The testing that was conducted was done in accordance with test ASTM D3273 as set forth in the Annual Book of ASTM Standards, Vol 06.01 which is hereby incorporated by reference. This is a standard test method for mildew known to those skilled in the art. When performing this test OPP was not tested by itself as it is known in the art of coatings that significant amounts of OPP are required, typically in the range of 2,000 to 10,000 ppm which is supported by EPA Registration No.'s 39967-11-67869 and EPA Registration No. 464-78-67869. An example of the significant amounts of OPP needed can also be seen in the OPP results in the paint testing shown above.
• 10=No Mildew Growth, Excellent Mildew Resistance • 7-9=Trace Mildew Growth, Very Good Mildew Resistance • 6-5=Moderate Mildew Growth, Poor Mildew Resistance • 4-0=Heavy Mildew Growth, Failed

[1] = Titebond Professional Drywall Adhesive, 500 ppm
[2] = Titebond Professional Drywall Adhesive, 1000 ppm
[3] = Titebond Professional Drywall Adhesive, 1500 ppm
[4] = Titebond Professional Drywall Adhesive, 2000 ppm
[5] = Titebond Professional Tub Surround Adhesive, 500 ppm
[6] = Titebond Professional Tub Surround Adhesive, 1000 ppm
[7] = Titebond Professional Tub Surround Adhesive, 1500 ppm
[8] = Titebond Professional Tub Surround Adhesive, 2000 ppm
[9] = Titebond Solvent Free Construction Adhesive, 500 ppm
[10] = Titebond Solvent Free Construction Adhesive, 1000 ppm
[11] = Titebond Solvent Free Construction Adhesive, 1500 ppm
[12] = Titebond Solvent Free Construction Adhesive, 2000 ppm
[13] = Titebond Solvent Free Fast Grab FRP Adhesive, 500 ppm
[14] = Titebond Solvent Free Fast Grab FRP Adhesive, 1000 ppm
[15] = Titebond Solvent Free Fast Grab FRP Adhesive, 1500 ppm
[16] = Titebond Solvent Free Fast Grab FRP Adhesive, 2000 ppm
[17] = Titebond Solvent Free Subfloor Adhesive, 500 ppm
[18] = Titebond Solvent Free Subfloor Adhesive, 1000 ppm
[19] = Titebond Solvent Free Subfloor Adhesive, 1500 ppm
[20] = Titebond Solvent Free Subfloor Adhesive, 2000 ppm

CCCCCCCCCCCCNC(=N)N [DGH, Dodecylguanidine Hydrochloride]
Mildew Results 7 Days [1]: 10
Mildew Results 14 Days [1]: 10
Mildew Results 21 Days [1]: 10
Mildew Results 28 Days [1]: 10
Mildew Results 7 Days [2]: 10
Mildew Results 14 Days [2]: 10
Mildew Results 21 Days [2]: 10
Mildew Results 28 Days [2]: 10
Mildew Results 7 Days [3]: 10
Mildew Results 14 Days [3]: 10
Mildew Results 21 Days [3]: 10
Mildew Results 28 Days [3]: 10
Mildew Results 7 Days [4]: 10
Mildew Results 14 Days [4]: 10
Mildew Results 21 Days [4]: 10
Mildew Results 28 Days [4]: 10
Mildew Results 7 Days [5]: 10
Mildew Results 14 Days [5]: 10
Mildew Results 21 Days [5]: 10
Mildew Results 28 Days [5]: 10
Mildew Results 7 Days [6]: 10
Mildew Results 14 Days [6]: 10
Mildew Results 21 Days [6]: 10
Mildew Results 28 Days [6]: 10
Mildew Results 7 Days [7]: 10
Mildew Results 14 Days [7]: 10
Mildew Results 21 Days [7]: 10
Mildew Results 28 Days [7]: 10
Mildew Results 7 Days [8]: 10
Mildew Results 14 Days [8]: 10
Mildew Results 21 Days [8]: 10
Mildew Results 28 Days [8]: 10
Mildew Results 7 Days [9]: 10
Mildew Results 14 Days [9]: 10
Mildew Results 21 Days [9]: 10
Mildew Results 28 Days [9]: 10
Mildew Results 7 Days [10]: 10
Mildew Results 14 Days [10]: 10
Mildew Results 21 Days [10]: 10
Mildew Results 28 Days [10]: 10
Mildew Results 7 Days [11]: 10
Mildew Results 14 Days [11]: 10
Mildew Results 21 Days [11]: 10
Mildew Results 28 Days [11]: 10
Mildew Results 7 Days [12]: 10
Mildew Results 14 Days [12]: 10
Mildew Results 21 Days [12]: 10
Mildew Results 28 Days [12]: 10
Mildew Results 7 Days [13]: 10
Mildew Results 14 Days [13]: 10
Mildew Results 21 Days [13]: 0
Mildew Results 28 Days [13]: 0
Mildew Results 7 Days [14]: 10
Mildew Results 14 Days [14]: 10
Mildew Results 21 Days [14]: 0
Mildew Results 28 Days [14]: 0
Mildew Results 7 Days [15]: 10
Mildew Results 14 Days [15]: 10
Mildew Results 21 Days [15]: 10
Mildew Results 28 Days [15]: 9
Mildew Results 7 Days [16]: 10
Mildew Results 14 Days [16]: 10
Mildew Results 21 Days [16]: 10
Mildew Results 28 Days [16]: 10
Mildew Results 7 Days [17]: 7
Mildew Results 14 Days [17]: 7
Mildew Results 21 Days [17]: 0
Mildew Results 28 Days [17]: 0
Mildew Results 7 Days [18]: 7
Mildew Results 14 Days [18]: 7
Mildew Results 21 Days [18]: 0
Mildew Results 28 Days [18]: 0
Mildew Results 7 Days [19]: 7
Mildew Results 14 Days [19]: 7
Mildew Results 21 Days [19]: 0
Mildew Results 28 Days [19]: 0
Mildew Results 7 Days [20]: 10
Mildew Results 14 Days [20]: 10
Mildew Results 21 Days [20]: 10
Mildew Results 28 Days [20]: 10
